{"source": "PubChem BioAssay AID624361", "about": "(Broad Institute, 2012)", "note": "Inconclusive results are not listed. Active and inactive are the calls of the source. How the calls were made is not given here."}
{"system": "not listed separately", "test": "LMP1-induced NF-kB luciferase signal inhibition – cell-based, EBV LMP1, dry powder, set 2, dose response (AID 624361)", "settings": "LMP1-induced NF-kappaB luciferase reporter cells, luminescence; at 30 µM (top of the series)"}
{"compound": "C[C@H](NC(=O)C[C@@H]1C=C[C@H](NC(=O)Cc2ccccn2)[C@H](CO)O1)c1ccccc1", "activity change, negative = inhibition": "-0.706% (inactive)"}
{"system": "not listed separately", "test": "LMP1-induced NF-kB luciferase signal inhibition – cell-based, EBV LMP1, dry powder, set 2, dose response (AID 624361)", "settings": "LMP1-induced NF-kappaB luciferase reporter cells, luminescence; at 35 µM (top of the series)"}
{"compound": "CC(C)(C)[S@@](=O)N1Cc2cc(C(=O)NCCc3ccncc3)nc(-c3cccc(-c4cccnc4)c3)c2[C@H]1CCO", "activity change, negative = inhibition": "-15% (inactive)"}
{"compound": "O=C(Cc1ccccn1)NCC[C@H]1CC[C@@H](NC(=O)Nc2ccc(Cl)cc2)[C@@H](CO)O1", "activity change, negative = inhibition": "-0.381% (inactive)"}
{"compound": "CO[C@@H]1CN(C)C(=O)c2ccc(NC(C)=O)cc2OC[C@@H](C)N(Cc2ccccc2F)C[C@H]1C", "activity change, negative = inhibition": "0.476% (inactive)"}
{"compound": "COC(=O)C[C@@H]1C[C@@H]2c3cc(NC(=O)CN(C)C)ccc3O[C@@H]2[C@@H](CO)O1", "activity change, negative = inhibition": "-0.64% (inactive)"}
{"compound": "C[C@@H](NC(=O)C[C@H]1C=C[C@H](NC(=O)Cc2ccccn2)[C@@H](CO)O1)c1ccccc1", "activity change, negative = inhibition": "9.43% (inactive)"}
{"compound": "C[C@H](NC(=O)C[C@H]1C=C[C@@H](NC(=O)Cc2ccccn2)[C@@H](CO)O1)c1ccccc1", "activity change, negative = inhibition": "11% (inactive)"}
{"compound": "CO[C@H]1CN(C)C(=O)c2ccc(NC(=O)C3CC3)cc2OC[C@H](C)N(C(=O)c2ccccn2)C[C@H]1C", "activity change, negative = inhibition": "-14% (inactive)"}
{"compound": "C[C@@H]1CN([C@@H](C)CO)C(=O)Cc2cc(NC(=O)Cc3ccccc3)ccc2O[C@@H]1CN(C)Cc1ccc(C(F)(F)F)cc1", "activity change, negative = inhibition": "-12.6% (inactive)"}
{"compound": "C[C@@H](NC(=O)C[C@H]1C=C[C@H](NC(=O)Cc2ccccn2)[C@H](CO)O1)c1ccccc1", "activity change, negative = inhibition": "9.56% (inactive)"}
{"compound": "C[C@@H](NC(=O)C[C@H]1C=C[C@@H](NC(=O)Cc2ccccn2)[C@@H](CO)O1)c1ccccc1", "activity change, negative = inhibition": "0.795% (inactive)"}
{"compound": "C[C@@H]1CN([C@@H](C)CO)C(=O)c2c(c3ccccc3n2C)-c2ccccc2CO[C@H]1CN(C)C(=O)Nc1ccc(F)cc1", "activity change, negative = inhibition": "-8.29% (inactive)"}
{"compound": "CS(=O)(=O)Nc1ccc2c(c1)[C@H]1C[C@@H](CC(=O)NCC3CC3)O[C@@H](CO)[C@H]1O2", "activity change, negative = inhibition": "8.63% (inactive)"}
{"compound": "O=C(Cc1ccccn1)NCC[C@@H]1CC[C@@H](NC(=O)Nc2ccc(Cl)cc2)[C@@H](CO)O1", "activity change, negative = inhibition": "1.94% (inactive)"}
{"compound": "C[C@H](CO)N1C[C@H](C)[C@H](CN(C)Cc2ccc(C(F)(F)F)cc2)Oc2ccc(NC(=O)Cc3ccccc3)cc2CC1=O", "activity change, negative = inhibition": "4.01% (inactive)"}
{"compound": "O=C(Cc1ccccn1)NCC[C@@H]1CC[C@@H](NC(=O)Nc2ccc(Cl)cc2)[C@H](CO)O1", "activity change, negative = inhibition": "10.1% (inactive)"}
{"compound": "CS(=O)(=O)Nc1ccc2c(c1)[C@@H]1C[C@H](CC(=O)NCC3CC3)O[C@H](CO)[C@@H]1O2", "activity change, negative = inhibition": "-4.41% (inactive)"}
{"compound": "C[C@@H]1CN([C@@H](C)CO)C(=O)c2c(c3ccccc3n2C)-c2ccccc2CO[C@@H]1CN(C)C(=O)Nc1ccc(F)cc1", "activity change, negative = inhibition": "-5.35% (inactive)"}
{"compound": "C[C@@H]1CN([C@H](C)CO)C(=O)Cc2cc(NC(=O)Cc3ccccc3)ccc2O[C@H]1CN(C)Cc1ccc(C(F)(F)F)cc1", "activity change, negative = inhibition": "-9.16% (inactive)"}
{"compound": "C[C@H](NC(=O)C[C@@H]1C=C[C@H](NC(=O)Cc2ccccn2)[C@@H](CO)O1)c1ccccc1", "activity change, negative = inhibition": "-0.999% (inactive)"}
{"compound": "C[C@H]1CN([C@@H](C)CO)C(=O)c2c(c3ccccc3n2C)-c2ccccc2CO[C@@H]1CN(C)C(=O)Nc1ccc(F)cc1", "activity change, negative = inhibition": "-12.4% (inactive)"}
{"compound": "C[C@H](NC(=O)C[C@@H]1C=C[C@@H](NC(=O)Cc2ccccn2)[C@H](CO)O1)c1ccccc1", "activity change, negative = inhibition": "-0.475% (inactive)"}
{"compound": "C[C@H](NC(=O)C[C@H]1C=C[C@H](NC(=O)Cc2ccccn2)[C@H](CO)O1)c1ccccc1", "activity change, negative = inhibition": "5.47% (inactive)"}
{"compound": "C[C@H]1CN([C@@H](C)CO)C(=O)Cc2cc(NC(=O)Cc3ccccc3)ccc2O[C@@H]1CN(C)Cc1ccc(C(F)(F)F)cc1", "activity change, negative = inhibition": "-12.8% (inactive)"}
{"compound": "C[C@@H]1CN([C@H](C)CO)C(=O)c2c(c3ccccc3n2C)-c2ccccc2CO[C@H]1CN(C)C(=O)Nc1ccc(F)cc1", "activity change, negative = inhibition": "-3.16% (inactive)"}
{"compound": "C[C@H](NC(=O)C[C@H]1C=C[C@@H](NC(=O)Cc2ccccn2)[C@H](CO)O1)c1ccccc1", "activity change, negative = inhibition": "-1.8% (inactive)"}
{"compound": "C/C=C/c1cccc(-c2nc(C(=O)Nc3nccs3)cc3c2[C@@H](CCO)N(C(=O)NC(C)C)C3)c1", "activity change, negative = inhibition": "-17% (inactive)"}
{"compound": "O=C(Cc1ccccn1)NCC[C@@H]1CC[C@H](NC(=O)Nc2ccc(Cl)cc2)[C@@H](CO)O1", "activity change, negative = inhibition": "-3.42% (inactive)"}
{"compound": "COc1ccccc1CNC(=O)C[C@H]1C[C@@H]2c3cc(NC(=O)CN(C)C)ccc3O[C@@H]2[C@@H](CO)O1", "activity change, negative = inhibition": "0.74% (inactive)"}
{"compound": "C[C@H](CO)N1C[C@H](C)[C@H](CN(C)Cc2ccc(Oc3ccccc3)cc2)Oc2ccc(NC(=O)CCCN(C)C)cc2C1=O", "activity change, negative = inhibition": "16.2% (inactive)"}
{"compound": "C[C@@H](NC(=O)C[C@@H]1C=C[C@@H](NC(=O)Cc2ccccn2)[C@H](CO)O1)c1ccccc1", "activity change, negative = inhibition": "5.05% (inactive)"}
{"compound": "O=C(Cc1ccccn1)NCC[C@H]1CC[C@@H](NC(=O)Nc2ccc(Cl)cc2)[C@H](CO)O1", "activity change, negative = inhibition": "-2.38% (inactive)"}
{"compound": "O=C(C[C@@H]1C[C@@H]2c3cc(NC(=O)c4cccnc4)ccc3O[C@@H]2[C@H](CO)O1)NCC(F)(F)F", "activity change, negative = inhibition": "-2.29% (inactive)"}
{"compound": "O=C(Cc1ccccn1)NCC[C@@H]1CC[C@H](NC(=O)Nc2ccc(Cl)cc2)[C@H](CO)O1", "activity change, negative = inhibition": "-5.88% (inactive)"}
{"compound": "COC(=O)C[C@H]1C[C@H]2c3cc(NC(=O)CN(C)C)ccc3O[C@H]2[C@H](CO)O1", "activity change, negative = inhibition": "-4.37% (inactive)"}
{"compound": "C[C@H](CO)N1C[C@H](C)[C@@H](CN(C)Cc2ccc(C(F)(F)F)cc2)Oc2ccc(NC(=O)Cc3ccccc3)cc2CC1=O", "activity change, negative = inhibition": "-11.3% (inactive)"}
{"compound": "O=C(C[C@H]1C[C@@H]2c3cc(NS(=O)(=O)c4ccc(F)cc4)ccc3O[C@@H]2[C@H](CO)O1)NC1CCCCC1", "activity change, negative = inhibition": "-1.53% (inactive)"}
{"compound": "C[C@H](NC(=O)C[C@H]1C=C[C@H](NC(=O)Cc2ccccn2)[C@@H](CO)O1)c1ccccc1", "activity change, negative = inhibition": "3.66% (inactive)"}
{"compound": "Cc1noc(C)c1S(=O)(=O)Nc1ccc2c(c1)C(=O)N([C@H](C)CO)C[C@H](C)[C@@H](CN(C)Cc1ccc(C(F)(F)F)cc1)OCCCC[C@@H](C)O2", "activity change, negative = inhibition": "-11.1% (inactive)"}
{"compound": "C[C@H](NC(=O)C[C@H]1C[C@@H]2c3cc(NC(=O)c4cccnc4)ccc3O[C@@H]2[C@@H](CO)O1)c1ccccc1", "activity change, negative = inhibition": "0.067% (inactive)"}
{"compound": "C[C@H]1CN([C@@H](C)CO)C(=O)Cc2cc(NC(=O)Cc3ccccc3)ccc2O[C@H]1CN(C)Cc1ccc(C(F)(F)F)cc1", "activity change, negative = inhibition": "11.5% (inactive)"}
{"compound": "CCC(=O)N1Cc2cc(C(=O)Nc3nccs3)nc(-c3cccc(-c4ccccc4OC)c3)c2[C@H]1CCO", "activity change, negative = inhibition": "-7.28% (inactive)"}
{"compound": "C[C@@H](NC(=O)C[C@H]1C=C[C@@H](NC(=O)Cc2ccccn2)[C@H](CO)O1)c1ccccc1", "activity change, negative = inhibition": "-5.56% (inactive)"}
{"compound": "Cc1noc(C)c1S(=O)(=O)Nc1ccc2c(c1)C(=O)N([C@H](C)CO)C[C@@H](C)[C@@H](CN(C)Cc1ccc(C(F)(F)F)cc1)OCCCC[C@@H](C)O2", "activity change, negative = inhibition": "1.95% (inactive)"}
{"compound": "COc1ccccc1C(=O)Nc1ccc2c(c1)C(=O)N(C)[C@@H]1CC[C@H](CC(=O)NCCc3ccncc3)O[C@H]1CO2", "activity change, negative = inhibition": "-6.13% (inactive)"}
{"compound": "C[C@@H](NC(=O)C[C@H]1C[C@@H]2c3cc(NC(=O)c4cccnc4)ccc3O[C@@H]2[C@@H](CO)O1)c1ccccc1", "activity change, negative = inhibition": "-0.38% (inactive)"}
{"compound": "O=C(Cc1ccccn1)NCC[C@H]1CC[C@H](NC(=O)Nc2ccc(Cl)cc2)[C@H](CO)O1", "activity change, negative = inhibition": "-1.01% (inactive)"}
{"compound": "C[C@@H]1CN([C@H](C)CO)C(=O)c2c(c3ccccc3n2C)-c2ccccc2CO[C@@H]1CN(C)C(=O)Nc1ccc(F)cc1", "activity change, negative = inhibition": "-8.91% (inactive)"}
{"compound": "C[C@@H](NC(=O)C[C@@H]1C=C[C@@H](NC(=O)Cc2ccccn2)[C@@H](CO)O1)c1ccccc1", "activity change, negative = inhibition": "9.33% (inactive)"}
{"compound": "C[C@@H](NC(=O)C[C@@H]1C=C[C@H](NC(=O)Cc2ccccn2)[C@H](CO)O1)c1ccccc1", "activity change, negative = inhibition": "-1.52% (inactive)"}
{"compound": "O=C(Cc1ccccn1)NCC[C@H]1CC[C@H](NC(=O)Nc2ccc(Cl)cc2)[C@@H](CO)O1", "activity change, negative = inhibition": "-4.61% (inactive)"}
{"compound": "C[C@@H](NC(=O)C[C@@H]1C=C[C@H](NC(=O)Cc2ccccn2)[C@@H](CO)O1)c1ccccc1", "activity change, negative = inhibition": "8.29% (inactive)"}
{"compound": "O=C(C[C@@H]1C[C@H]2c3cc(NS(=O)(=O)c4ccc(F)cc4)ccc3O[C@H]2[C@@H](CO)O1)NC1CCCCC1", "activity change, negative = inhibition": "-2.44% (inactive)"}
{"system": "LMP1-induced NF-kappaB luciferase reporter cells, luminescence", "test": "LMP1-induced NF-kB luciferase signal inhibition – cell-based, EBV LMP1, dry powder, set 2, dose response (AID 624361)", "settings": "not given", "units": {"AC35": "µM"}}
{"compound": "N#C[C@H]1[C@H](c2ccc(C#Cc3ccccc3F)cc2)[C@@H](CO)N1C(=O)c1cccnc1", "AC35": 22.8}
{"compound": "Cc1noc(C)c1S(=O)(=O)Nc1ccc2c(c1)C(=O)N([C@@H](C)CO)C[C@H](C)[C@H](CN(C)Cc1ccc(C(F)(F)F)cc1)OCCCC[C@@H](C)O2", "AC35": 28.9}
{"compound": "CC(C)(C)[S@@](=O)N1Cc2cc(C(=O)NCc3ccccc3F)nc(-c3cccc(-c4ccncc4)c3)c2[C@H]1CCO", "AC35": 35.5}
{"compound": "COc1cccc(S(=O)(=O)N(C)C[C@@H]2Oc3cc(C4=CCCCC4)ccc3S(=O)(=O)N([C@@H](C)CO)C[C@H]2C)c1", "AC35": 20.9}
{"compound": "CC(C)NC(=O)N1Cc2cc(C(=O)NC3Cc4ccccc4C3)nc(-c3cccc(-c4cccnc4)c3)c2[C@@H]1CCO", "AC35": 23.7}
{"compound": "CN1C(=O)c2cc(NC(=O)Cc3cccs3)ccc2OC[C@@H]2O[C@H](CC(=O)NCc3ccc(-c4ccccc4)cc3)CC[C@H]21", "AC35": 29.4}
